Literature values in the CATMoS acute toxicity set (Mansouri et al. 2021).
Where “and” joins values, the source holds several entries; their conditions need not be identical. Equal entries are not always repeated.

Assay: rat acute oral toxicity
Details: in vivo
Source text: […]The data set underlying the modeling effort for this project was initially compiled by NICEATM and U.S. EPA’s CCTE. Briefly, LD50 data were collected from rat acute oral systemic toxicity tests, including limit tests, ranges/confidence intervals, and discrete LD50 values. The full data set included 21,200 LD50 entries for 15,688 substances. […] Data were reviewed to ensure that LD50 values with obvious errors in the extracted data such as unit conversion errors (e.g., comma and decimal separator misplacements) were either fixed or removed. After this review, 16,209 LD50 values remained. Many of the chemicals represented had multiple LD50 entries, requiring that a single representative value per Chemical Abstracts Service Registry Number (CASRN) identifier be defined to facilitate modeling efforts. Based on ATWG feedback and to define the representative LD50 as a protective value while accounting for the distribution across multiple LD50s, the median of the lowest quartile was computed using only discrete LD50 values (omitting limit test data and range and confidence interval data). A detailed summary of the data compilation is available online on the NICEATM webpage dedicated to the collaborative modeling project (NTP 2020).
[…][…] For categorical designations, limit test and range/confidence interval LD50 data were integrated wherever possible. As such, the number of chemicals with end point values/calls varies across the modeling end points (Table 3) based on whether chemicals had representative LD50 values and/or other data. If a chemical had both, the representative value was used to determine categorical calls rather than limit test data. Some data were useable only for certain end points and categories depending on the thresholds. For example, ranges that spanned multiple hazard categories were considered only for the binary (very toxic/nontoxic) end points and omitted from rendering a determination for hazard category assignment.
[…]The final data set comprising 11,992 chemicals was split into training and evaluation sets […], respectively. This process was performed semirandomly by ordering chemicals based on the five end points (categorical and continuous LD50 values) and partitioning every fourth record into the evaluation set accordingly. This approach was taken to ensure an equivalent distribution of the LD50 values and the different hazard categories between the training and the evaluation sets without supervised sampling of the chemicals based on structures (Figure 1A). The sources of the chemical structures were also kept equivalent between the two sets, with chemical structures obtained from DSSTox, being the highest quality, representing over 75% of each set (Figure 1B).

Compound | LD50
NC(=O)Cc1cccc2ccccc12 | 1690 mg/kg
CC(C)(C)c1ccc(CCC=O)cc1 | 2700 mg/kg
COc1ccccc1C1CCN(CCCc2ccc3c(c2)CCC(=O)N3)CC1 | 500 mg/kg
CCOC(=O)C1=C(COCCN)NC(C)=C(C(=O)OC)C1c1ccccc1Cl (configuration not stated) | 393 mg/kg
Cc1ccc2c(c1)CC(=O)c1cc(C(C)C(=O)OCCOCCO)ccc1O2 (configuration not stated) | 219 mg/kg
O=C(OCc1ccccc1)c1ccccc1O | 2230 mg/kg
C=C(C)C(=O)OCCC[Si](OC)(OC)OC | 23500 mg/kg
CCC(C)c1ccc(OC(=O)NC)cc1 (configuration not stated) | 44 mg/kg
COc1c(Cl)cc2[nH]c(C(F)(F)F)nc2c1Cl | 8.03 mg/kg
O=C1CCC(=O)N1c1cc(Cl)cc(Cl)c1 | 890 mg/kg
O=C1CCc2cc(C(=O)CCN3CCN(c4ccccc4)CC3)ccc2N1 | 500 mg/kg
O=[N+]([O-])c1cc(C(F)(F)F)cc([N+](=O)[O-])c1Cl | 930 mg/kg
O=C(OCC(Br)(Br)Br)c1ccco1 | 1500 mg/kg
CC(C)(OO)c1ccccc1 | 382 mg/kg
O=c1ccc2cc(CCCCN3CCN(c4ccccc4)CC3)ccc2[nH]1 | 500 mg/kg
NCCCCN | 463 mg/kg
COc1ccccc1S | 1740 mg/kg
Cc1ccc([N+](=O)[O-])cc1N | 574 mg/kg
Cn1c(=O)c2c(ncn2CCO)n(C)c1=O | 710 mg/kg
CN(C)C(=O)Nc1ccc(Cl)cc1 | 1050 mg/kg
OCC(CO)N[C@H]1C[C@](O)(CO)[C@@H](O)[C@H](O)[C@H]1O | 20000 mg/kg
CC[C@H]1C2C[C@H]3[C@@H]4N(C)c5ccccc5C45C[C@@H](C2[C@H]5O)N3[C@@H]1O (some centres not stated) | 290 mg/kg

Compound | LD50
CN(C)[C@@H]1C(O)=C(C(N)=O)C(=O)[C@@]2(O)C(O)=C3C(=O)c4c(O)ccc(Cl)c4[C@@H](O)[C@H]3C[C@@H]12 | 2370 mg/kg
COc1cc2[nH]c3c(c2cc1OC)CCN1CC2C(C)OC=C(C(=O)OCCN(C)C)C2CC31 (configuration not stated) | 2350 mg/kg
O=NN1CCc2ccccc21 | 320 mg/kg
CCOP(=O)(OCC)SCS(=O)(=O)CC | 0.5 mg/kg
CCCCCC1=CCCC1=O | 2200 mg/kg
OCC(O)C1CC=CCC1 (configuration not stated) | 1070 mg/kg
CC(=O)OCc1ccc(C(C)C)cc1 | 1450 mg/kg
Cc1ccc2oc(=O)ccc2c1 | 1680 mg/kg
CCCCCCCCC[N+]1(C)[C@H]2CC(OC(=O)C(CO)c3ccccc3)C[C@H]1[C@H]1O[C@H]12 (some centres not stated) | 1300 mg/kg
Cc1cccc(C)c1N/N=C(/N)N(C)C | 980 mg/kg
C=CCOCCO | 3050 mg/kg
Clc1cc2c(cc1Cl)Oc1c(cc(Cl)c(Cl)c1Cl)O2 | 0.206 mg/kg
CCO[Si](CNCCCCCCN)(OCC)OCC | 500 mg/kg
O=C(OCCOC(=O)C(Cl)(Cl)Cl)C(Cl)(Cl)Cl | 7000 mg/kg
Cc1cc(C(=O)c2ccccc2)ccc1N=Cc1cccc(OCCC(C)C)c1 | 2100 mg/kg
CCN(CC)CCC1(c2ccccc2)C(=O)Oc2ccccc21 (configuration not stated) | 600 mg/kg
Cc1ccccc1CNC1=NCCS1 | 164 mg/kg
CC(C)=CCO | 810 mg/kg
CCOC(C1=NCCCN1)c1ccccc1 (configuration not stated) | 1540 mg/kg
CC1NC(=S)NC1=O (configuration not stated) | 1050 mg/kg
CC(C)=CCC1C(=O)N(c2ccccc2)N(c2ccccc2)C1=O | 1340 mg/kg
CC(C)NNCS(=O)(=O)O | 330 mg/kg

Compound | LD50
O=[N+]([O-])c1ccc(Sc2ccc([N+](=O)[O-])cc2)cc1 | 1490 mg/kg
O=COCCc1ccccc1 | 3220 mg/kg
C1CCC2OCCOCCOC3CCCCC3OCCOCCOC2C1 (configuration not stated) | 176 mg/kg
ClCC(Cl)=C(Cl)Cl | 350 mg/kg
O=C1c2ccccc2N(C(=O)CN2CCOCC2)CN1c1ccccc1 | 2220 mg/kg and 2140 mg/kg
CCCOP(=O)(OC=C(Cl)Cl)OCCCl (configuration not stated) | 25 mg/kg
CC(C)=CCC1=C(O)C(C(=O)CC(C)C)=C(O)C(CC=C(C)C)(CC=C(C)C)C1=O | 100 mg/kg
FC(F)(F)c1cccc(Nc2ccccc2-c2nn[nH]n2)c1 | 455 mg/kg
CC(C)c1ccc(C(C)(C)O)cc1 | 11300 mg/kg
NC(=O)OC(CCl)Cc1ccccc1 (configuration not stated) | 490 mg/kg
O=C(Nc1ccccc1)Nc1cnns1 | 5350 mg/kg
Cc1cc(=O)oc2cc(OP(=O)(OCCCl)OCCCl)ccc12 | 141 mg/kg
NCCOS(N)(=O)=O | 7460 mg/kg
C=C(Nc1ccc(NC(=O)COC)cc1)N(C)C | 4690 mg/kg
O=[N+]([O-])c1nccs1 | 137 mg/kg
CC(=O)Nc1c(I)c(C(=O)O)c(I)c(N(C)C(C)=O)c1I | 38100 mg/kg
CCCCC(CC)CNCC(CC)CCCC (configuration not stated) | 1640 mg/kg
CN(C)c1ccc(SC#N)cc1 | 500 mg/kg
CC(C)N(C(=O)SCC(Cl)=CCl)C(C)C | 395 mg/kg
CC(C)NC(=N)NC(=N)Nc1ccc(Cl)cc1 | 58 mg/kg
COc1ccc(C(CCCc2ccccc2)N(C)C)cc1OC (configuration not stated) | 500 mg/kg
CCCC(N)(CCC)CCC | 135 mg/kg

Compound | LD50
Cc1cc(=O)nc(SCc2ccccc2N(C)C)[nH]1 | 2400 mg/kg
O=S1(=O)CS(=O)(=O)OCO1 | 300 mg/kg
Nc1nc2ccc(Br)cc2o1 | 500 mg/kg
O=C(C=CC(=O)OCCCl)OCCCl | 71 mg/kg
CC1=CCC(=O)O1 | 3900 mg/kg
CCN(CC)CCN(CCN(CC)CC)n1cc(-c2ccc(Cl)cc2)c2cc(Cl)ccc21 | 780 mg/kg
N[C@@H](Cc1c[nH]c2ccc(O)cc12)C(=O)O | 243 mg/kg
Cc1cccc(NC(N)=O)c1 | 1330 mg/kg
C=CCOCC1CO1 (configuration not stated) | 1600 mg/kg
Nc1ccc(O)c2c1C(=O)c1c(O)cc(-c3ccc(O)cc3)c(N)c1C2=O | 6380 mg/kg
CCOC1CCCCC1O (configuration not stated) | 804 mg/kg
CCNCC | 9900 mg/kg
O=C(O)C1CCCCC1 | 3260 mg/kg
COC(=O)CC1CCCCC1 | 2500 mg/kg
O=C(CF)NCc1ccc(Br)cc1 | 410 mg/kg
O=C(O)c1ccccc1C(=O)Nc1ccccc1 | 8840 mg/kg
CCC1(C)C(=O)N(CC2CO2)C(=O)N1CC1CO1 (configuration not stated) | 250 mg/kg
Cc1cccc(C)c1NC(=O)CN1CCCC1=O | 1180 mg/kg
CC(CCC(=O)O)C(=O)O (configuration not stated) | 300 mg/kg
OCCOCCN1CCN(C(c2ccccc2)c2ccc(Cl)cc2)CC1 (configuration not stated) | 690 mg/kg and 950 mg/kg and 840 mg/kg
CC/C=C\CCO | 4700 mg/kg
CCCC=C(C=NCCCCCCCCCCCCCCCCCCCCC)CC | 5320 mg/kg

Compound | LD50
CC(C)(C)CC1(C)CO1 (configuration not stated) | 4920 mg/kg
O=[N+]([O-])c1cc(Cl)c(Cl)c(Cl)c1[N+](=O)[O-] | 425 mg/kg
Clc1cc2c(cc1Cl)Oc1c(Cl)c(Cl)c(Cl)c(Cl)c1O2 | 0.887 mg/kg
O=C(O)c1cc(Cl)cc([N+](=O)[O-])c1Cl | 2640 mg/kg and 3500 mg/kg
CC(C)Oc1cccc(C2CC(=O)NC2=O)c1 (configuration not stated) | 2400 mg/kg
C=C(OP(=O)(OCC)OCC)P(=O)(OC)OC | 173 mg/kg
CC(C)C(Br)C(=O)O (configuration not stated) | 769 mg/kg
CCOCCOc1ccc(Cl)cc1Cl | 1410 mg/kg
O=C(CCCN1CCC(n2c(=S)[nH]c3ccccc32)CC1)c1ccc(F)cc1 | 232 mg/kg
N[C@@H](CCC(=O)O)C(=O)O | 14700 mg/kg
Nc1ccc(OP(=O)(Oc2ccc(N)cc2)Oc2ccc(N)cc2)cc1 | 138 mg/kg
Nc1cccc(N(CCO)CCO)c1 | 246 mg/kg
CCOP(=O)(OCC)OC(=CBr)c1ccc(Cl)cc1Cl | 21.4 mg/kg
Cc1ccccc1N=C=O | 1600 mg/kg
CN(C)N=Nc1ccc(F)cc1 | 326 mg/kg
CCC(C)(C)c1ccc(Cl)c(OC(=O)NC)c1 | 75 mg/kg
CC(COc1ccccc1)N(CCCl)Cc1ccccc1 (configuration not stated) | 2500 mg/kg
CCCCNC(=S)NCCCC | 350 mg/kg
CCc1c(C)nc2cc(C)cc(C)n2c1=O | 1500 mg/kg
CC(Cl)COP(=O)(OCC(C)Cl)Oc1ccc([N+](=O)[O-])cc1 (configuration not stated) | 173 mg/kg
N#CCCOCCCCOCCC#N | 4000 mg/kg
COC(=O)c1ccc(C(=O)OC)cc1 | 4390 mg/kg

Compound | LD50
O=C(Cn1ccnc1)c1ccc2c(c1)Cc1ccccc1-2 | 4550 mg/kg
COP(=S)(OC)Oc1ccc(SC)c(C)c1 | 180 mg/kg
c1ccc(N=Nc2ccccc2)cc1 | 1000 mg/kg
CC(C)Cc1ccc(C(C)C(=O)O)cc1 (configuration not stated) | 636 mg/kg
COCCCOCC(C)OCCCOC(=O)c1ccccc1 (configuration not stated) | 5480 mg/kg
COC(=O)C(c1ccccc1)C1CCCCN1 (configuration not stated) | 367 mg/kg and 350 mg/kg
ClCC[N+]1(CCCCCC[N+]2(CCCl)CCCO2)CCCO1 (configuration not stated) | 30 mg/kg
O=C(NCCN1CCOCC1)c1ccc(Cl)cc1 | 707 mg/kg
Cc1nc(Cn2cnc3c2c(=O)n(C)c(=O)n3C)no1 | 1550 mg/kg
CC1(S(=O)(=O)O)CC(=O)c2ccccc2C1=O (configuration not stated) | 4510 mg/kg
C1N2CN3CN1CN(C2)C3 | 9200 mg/kg
Cc1c(Cl)c(Cl)c(Cl)c2[nH]c(C(F)(F)F)nc12 | 6.49 mg/kg
O=C(Nc1cc(Cl)ccc1Cl)c1cc(Cl)cc(-c2ccccc2)c1O | 6310 mg/kg
Cc1c(C(=O)O)nnn1-c1ccccc1 | 1500 mg/kg
O=c1[nH]sc2ccccc12 | 1020 mg/kg
CN=NNc1ccc(I)cc1 | 499 mg/kg
CCOC(=O)C1=CN(CC)C2CCCC(C)N2C1=O (configuration not stated) | 746 mg/kg
OCCNCCc1ccccc1 | 1870 mg/kg
C[N+]1(C)CCC(OC(=O)C(O)(c2ccccc2)c2cccs2)C1 (configuration not stated) | 3580 mg/kg
C=C(C)C(=O)OCC | 14800 mg/kg
COc1ccc(N=NN(C)C)cc1 | 347 mg/kg
CCCCCCOCCCCCC | 30900 mg/kg
